Where a SMILES comes first, the peptide text is derived from it. [ ]: non-standard residue; d: D form. sY = N[C@@H](Cc1ccc(OS(=O)(=O)O)cc1)C(=O)O; Nle = CCCC[C@H](N)C(=O)O
Target: T1, Tyrosine-protein phosphatase non-receptor type 1 (Rattus norvegicus, UniProt P20417)
T1 sequence (P20417 whole entry): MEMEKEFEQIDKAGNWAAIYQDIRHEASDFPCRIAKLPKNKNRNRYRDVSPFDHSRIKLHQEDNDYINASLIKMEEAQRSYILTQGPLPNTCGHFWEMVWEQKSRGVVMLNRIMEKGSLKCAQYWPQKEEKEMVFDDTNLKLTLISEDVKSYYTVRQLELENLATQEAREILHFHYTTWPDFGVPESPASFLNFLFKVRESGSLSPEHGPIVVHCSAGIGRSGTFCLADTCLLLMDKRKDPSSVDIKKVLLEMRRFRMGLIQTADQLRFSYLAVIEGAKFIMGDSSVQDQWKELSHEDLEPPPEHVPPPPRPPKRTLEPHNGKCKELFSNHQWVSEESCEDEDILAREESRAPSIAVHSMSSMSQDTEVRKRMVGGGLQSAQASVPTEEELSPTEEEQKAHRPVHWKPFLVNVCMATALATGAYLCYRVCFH
Experiment: PTP1B Inhibition Assay
Conditions: pH 7.2; 22 °C
Text: Hydrolysis of substrate p-nitrophenyl phosphate was monitored on a 96-well microplate reader. Concentrations of PTP1B inhibitors that resulted in 50% reduction of enzyme activity (IC50) were derived by fitting reaction rates obtained in the presence and absence of compounds.

| Ki [µM] | SMILES |
| --- | --- |
| 5 | CCCC[C@H](NC(=O)[C@H](Cc1ccc(OS(=O)(=O)O)cc1)NC(=O)[C@H](CC(=O)O)NC(C)=O)C(N)=O (Ac-Asp-[sY]-[Nle]-NH2) |
| 2.8 | CCCCCNC(=O)[C@H](Cc1ccc(OCC(=O)O)c(C(=O)O)c1)NC(=O)CCC(=O)O [2-(carboxymethoxy)-5-[(2S)-2-(3-formamidopropanoic acid)-2-(pentylcarbamoyl)ethyl]benzoic acid] |
| 0.12 | CCCCCNC(=O)[C@H](Cc1ccc(OCC(=O)O)c(C(=O)O)c1)NC(=O)[C@H](Cc1ccccc1)NC(=O)Cn1[nH]ncc1=S [2-(carboxymethoxy)-5-[(2S)-2-(pentylcarbamoyl)-2-[(2S)-3-phenyl-2-[1-(5-sulfanyl-1H-1,2,3-triazol-1-yl)acetamido]propanamido]ethyl]benzoic acid] |
| 12 | CCCCCNC(=O)[C@H](Cc1ccc(OC(C(=O)O)C(=O)O)cc1)NC(=O)CCC(=O)O [2-{4-[(2S)-2-(3-formamidopropanoic acid)-2-(pentylcarbamoyl)ethyl]phenoxy}propanedioic acid] |
| 1.2 | CCCCCNC(=O)[C@H](Cc1ccc(OC(C(=O)O)C(=O)O)cc1)NC(=O)[C@H](Cc1ccccc1)NC(=O)CCC(=O)O [2-{4-[(2S)-2-[(2S)-2-(3-formamidopropanoic acid)-3-phenylpropanamido]-2-(pentylcarbamoyl)ethyl]phenoxy}propanedioic acid] |
| 30 | CCCCCNC(=O)[C@H](Cc1ccc(OS(=O)(=O)O)cc1)NC(=O)CCC(=O)O [Compound II] |
| > 100 | CCCCCNC(=O)[C@H](Cc1ccc(OCC(=O)OC)c(C(=O)OC)c1)NC(=O)[C@H](Cc1ccccc1)NC(=O)CCC(=O)OC [methyl 2-(2-methoxy-2-oxoethoxy)-5-[(2S)-2-[(2S)-2-(methyl 3-formamidopropanoate)-3-phenylpropanamido]-2-(pentylcarbamoyl)ethyl]benzoate] |

Source: BindingDB's records for doi:10.1021/bi002865v (Pharmacia, 2001)
